Structures can show the parent of a compound that is named as a salt.
What was measured:
[1] = tested on: Coxsackievirus B; assay: Inhibition rate at 25 μM in virus-infected Vero cells (AlamarBlue); format: cell-based; details: 72 hours, FIG. 3
Method: (§1) Test 3: In vitro anti-CVB1, anti-CVB2, anti-CVB3, anti-CVA16, anti-EV71 BrCr and anti-EV71-C2 virus models of Vero cells (cell quantity: 1.5×10^4 cells per well) were established, respectively. […] An inhibition rate and a standard deviation were measured by an AlamarBlue test in three parallel tests.

[2] = tested on: CVB1; assay: Time process test (administration time after infection); format: cell-based, Coxsackievirus B1 (CVB1); details: different administration times, FIG. 5
[3] = tested on: enterovirus type 71 (BrCr/C4 subtype); assay: Antiviral activity against enterovirus type 71 (CPE in vitro); format: cell-based
Method: as §1

[4] = tested on: CVB1; details: Coxsackievirus B type 1; CPE in vitro
Method: 72 hours later, the degree of a cytopathic effect was detected by an AlamarBlue fluorescent reagent, and an inhibition rate was calculated by using a formula.

[5] = tested on: Coxsackievirus A (6/10/16 subtype); assay: Antiviral activity against Coxsackievirus A (CPE in vitro); format: cell-based
Method: as §1

[6] = Vero cytotoxicity test; format: cell-based; details: African green monkey; Vero cells; mean ± standard deviation of three groups of parallel tests
Method: A cytotoxicity test of CVB1, CVB2 and CVB3 on Vero cells was carried out with three groups of parallel tests, respectively, and Table 1 was obtained.

[7] = tested on: CVB2; details: Coxsackievirus B type 2; CPE in vitro
[8] = tested on: CVB1; assay: Progeny virus yield of CVB1 in Vero cells (supernatant titrated by plaque reduction test); format: cell-based, Coxsackievirus B1 (CVB1); details: 0.02 MOI CVB1, Vero cells, 72 hours, FIG. 4c
Method: After culture for 72 hours, a supernatant was titrated by a plaque reduction test, and results were obtained from three groups of parallel tests.

[9] = tested on: CVB3; details: Coxsackievirus B type 3; CPE in vitro

CN(C)CCC=C1c2ccccc2COc2ccccc21 [doxepin hydrochloride]
activity spectrum from inhibition rate (in words) [1]: broad-spectrum activity against Coxsackievirus B | stage of infection cycle inhibited (in words) [2]: inhibits virus replication at an early stage of an infection cycle | antiviral activity (in words) [3]: does not have any antiviral activity | antiviral activity (in words) [4]: strong antiviral activity | antiviral activity (in words) [5]: does not have any antiviral activity | CC50 [6]: 90.7 ± 16.4 µM | antiviral activity (in words) [7]: strong antiviral activity | progeny yield of CVB1 (in words) [8]: inhibited the progeny yield of CVB1 | antiviral activity (in words) [9]: strong antiviral activity

Reference: patent US20240390316A1 (SHENZHEN TECHNOLOGY UNIVERSITY, priority 2022, published 2024)
